Measurements taken from US9101567B2, “Suppression of cancer growth and metastasis using nordihydroguaiaretic acid derivatives with 7-hydroxystaurosporine” (The Johns Hopkins University, priority 2010, dated 2015).

Experiments:
[1] = tested on: LNCaP human prostate cancer cells; experiment: TUNEL assay of cell death in LNCaP cells; format: cell-based; settings: 24 hrs, z-DEVD-fmk 50 μM
Excerpt: LNCaP human prostate cancer, DU145 human prostate cancer, PC3 human prostate cancer, MCF-7 human breast cancer, MDA-MB-231 human breast cancer, MDA-MB-468 human breast cancer, HT29 human colon cancer, K562 human myelogenous leukaemia, HepG2 human hepatoma, Hep3B human hepatoma, and LN229 human glioblastoma cancer cell lines were purchased from American Type Culture Collection (Manassas, Va.). OC24 human ascites ovarian cancer cell line was a generous gift from Dr. XXX (Johns Hopkins University, MD). LNCaP cell line was cultured in RPMI1640 medium supplemented with glucose (14 mM), pyruvate (1 mM), and fetal bovine serum (FBS) (10%). DU145 cell line was cultured in MEM supplemented with non-essential amino acids, glucose (21 mM), pyruvate (1 mM), and FBS (10%). PC3 cell line was cultured in F-12K medium supplemented with FBS (10%). MCF-7 cell line was cultured in DMEM supplemented with FBS (10%). OC24 cell line was cultured in RPMI1640 medium supplemented with FBS (10%) as suspension culture. MDA-MB-231 and 468 cell lines were cultured in Leibovitz's L15 medium supplemented with FBS (10%) under air. HT29 cell line was cultured in DMEM supplemented with glucose (25 mM) and FBS (10%). K562 cell line was cultured in RPMI1640 supplemented with FBS (10%). HepG2 and Hep3B cell lines were cultured in MEM supplemented with FBS (10%). LN229 cell line was cultured in DMEM supplemented with FBS (5%). […]

caspase-3 and 9 = experiment: Western blotting of cleaved caspase-3 and 9 in LNCaP cells; format: cell-based, human; settings: 17 hrs, M4N 80 μM, etoposide 10 μM, rapamycin 10 μM, UCN-01 2 μM
Procedure: (§1) The sample volumes were adjusted by the total protein amount. Protein assay was performed by Bio-Rad Protein Assay (Bio-Rad Laboratories, Inc. Hercules, Calif.). The samples were resolved by the standard SDS-polyacrylamide gel electrophoresis and transferred to nitrocellulose membrane (Amersham Biosciences, Bjorkgatan, Sweden). The membranes were blocked with skim milk, and incubated with primary antibodies at 4° C. overnight and then with secondary antibody conjugated with horse radish peroxidase at room temperature for 2 hrs. The signals were detected by western blot chemiluminescence reagent plus (New England Nuclear Life Science Products, Boston, Mass.).
(§2) The efficacy of the combination treatment of M4N with three anticancer drugs, etoposide, rapamycin, and UCN-01 to induce cell death was examined for LNCaP human prostate cancer cells with TUNEL assay. We chose these anticancer drugs trying to diversify the mechanisms in which the anticancer drugs work (43-45). […] Additionally the effect of caspase-3 and 7 inhibitor, zDEVD-fmk on the cell death induced by the combination treatment was examined (FIG. 1E).

caspase-7 [2] = experiment: Enzymatic assay for caspase-7 in extracts of treated LNCaP cells; format: cell-based, human; settings: extracts of LNCaP cells treated for 13 hrs
Procedure: The enzymatic assay specific for caspase-7 was performed using a CaspSELECT caspase-7 immunoassay kit (BioVision, Mountain View, Calif.). This assay is based on the […] assay with DEVD-afc. Since DEVD-afc can be a substrate for either caspase-3 or 7, only caspase-7 is selected from cell extracts by anti-caspase-7 antibody which is coated on microtiter plates. Briefly the microtiter plates were coated with anti-caspase-7 antibody overnight at 4 C and blocked with a blocking solution for 30 minutes at room temperature. The cell extracts were applied to the microtiter plates. After washing the microtiter plates, the substrate […] was added to the plates and incubated for about three hours. The fluorescence was measured by a microtiter plate fluorescence reader Infinite 200 (Tecan, Switzerland).
as §2

LNCaP tumors = experiment: Nude mice orthotopically implanted with LNCaP tumors: life-span and lung metastasis; format: in vivo, nude (nu/nu) mice; settings: LNCaP tumor-bearing nude mice; lung sections, hematoxylin and eosin
Procedure: T-cell deficient male nude mice (nu/nu) were obtained from Charles River Laboratories (Wilmington, Mass.). […] For drug combinations (M4N/etoposide, M4N/rapamycin, and M4N/UCN-01), etoposide, rapamycin, or UCN-01 powder was further added to M4N in CPE 25/30 to make a final concentration of M4N (10 mg/ml) respectively with etoposide (4 mg/ml), rapamycin (3.75 mg/ml), or UCN-01 (884 g/ml) in CPE 25/30 formulation. These drugs were intravenously injected into the tail vein of mice at the daily dose of 0.1 ml per mouse. Therefore dosages of each injection were 1 mg/shot (for M4N), 0.4 mg/shot (for etoposide), 0.375 mg/shot (for rapamycin), and 88.4 μg/shot (for UCN-01). The drug injections were performed once every day; beginning at day 3 until day 31 after tumor inoculation for the combination treatment with either etoposide or rapamycin and until day 25 after tumor inoculation for the combination treatment with UCN-01. After this the drugs were injected once a week for etoposide/rapamycin combination treatment and once every three days until day 35 for UCN-01 combination treatment.
LNCaP cells growing subconfluently were collected into the tissue culture medium without fetal bovine serum and antibiotics. The cell concentration was adjusted by the same medium. […]

caspase-7 [3] = experiment: Western blotting of caspase-7 cleavage in HepG2 cells; format: cell-based, human; settings: HepG2, 17 hrs; M4N 80 μM, etoposide 20 μM, rapamycin 20 μM, UCN-01 5 μM
Procedure: as §1
The effect of the combination treatments on cell death and autophagy was examined in two cell lines other than LNCaP cells.

Row | SMILES | effect on TUNEL-positive cell death induced by the combination treatments [1] | expression of cleaved caspase-3 and 9 (caspase-3 and 9) | caspase-7 activation (enzymatic activity) (caspase-7 [2]) | mice with obvious lung metastasis (histology) (LNCaP tumors) | caspase-7 cleavage product (caspase-7 [3])
1 | COC(=O)CC[C@H](NC(=O)[C@H](CC(=O)OC)NC(=O)OCc1ccccc1)C(=O)N[C@H](C(=O)N[C@@H](CC(=O)OC)C(=O)CF)C(C)C [zDEVD-fmk] | inhibited a large portion of the cell death |  |  |  | 
2 | COc1cc([C@@H]2c3cc4c(cc3[C@@H](O[C@@H]3O[C@@H]5CO[C@@H](C)O[C@H]5[C@H](O)[C@H]3O)[C@H]3COC(=O)[C@H]23)OCO4)cc(OC)c1O [etoposide] |  | didn't induce the cleavage | only a small amount | 3 out of 5 | small amount
